The nature of the series: Stability of compounds in aqueous solution. Particulars: compound dissolved in aqueous solution, in %; for stability, 25° C./ 7 days: maintained at 25° C. for 7 days; for stability, 25° C./ 14 days: maintained at 25° C. for 14 days; for stability, 40° C./ 7 days: maintained at 40° C. for 7 days. The class given is physicochemical. The procedure:
In some embodiments the stability of the compound is such that, when stored in an aqueous solution at 25° C. for 7 days or 14 days, at least about 70%, at least about 80%, at least about 90%, at least about 95%, at least about 97%, at least about 99% of the original compound, and up to about 100% of the original compound remains in the solution. In some embodiments, the stability of the compound is such that at least about 70%, at least about 80%, at least about 90%, at least about 95%, at least about 97%, at least about 99% of the original compound, and up to about 100% of original compound remains after 7 days of storage in an aqueous solution at 40° C.
The following Table 1 depicts various embodiments indicating the stability of compounds depicted by their respective structures in the table. The compounds were dissolved in an aqueous solution, and maintained at the indicated temperatures, for 7 to 14 days, as indicated.

As to `CN(C)Cc1ccc(OC(=O)c2ccc(CCC[C@@H]3[C@@H](CCc4cc(Cl)cc(Cl)c4)[C@H](O)C[C@H]3Cl)s2)cc1` [Compound 2, 5-(3-{(1R, 2R, 3R, 5R)-5-Chloro-2-[2-(3,5-dichlorophenyl)ethyl]-3-hydroxycyclopentyl}-propyl)thiophene-2-carboxylic acid 4-dimethylaminomethyl phenyl ester], the “stability, 25° C./ 7 days” value turned out to be 96.4; the “stability, 25° C./ 14 days” value is given as 95.2; the “stability, 40° C./ 7 days” value amounted to 78.0.

On to `O=C(Oc1ccc(CN2CCOCC2)cc1)c1ccc(CCC[C@@H]2[C@@H](CCc3cc(Cl)cc(Cl)c3)[C@H](O)C[C@H]2Cl)s1` [Compound 3, 5-(3-{(1R, 2R, 3R, 5R)-5-Chloro-2-[2-(3,5-dichlorophenyl)ethyl]-3-hydroxycyclopentyl}-propyl)thiophene-2-carboxylic acid 4-morpholin-4-ylmethyl phenyl ester], for which the “stability, 25° C./ 7 days” value came out at 97.3; the “stability, 25° C./ 14 days” value came out at 97.3; the “stability, 40° C./ 7 days” value was found to be 91.7.

`CN(C)c1ccc(OC(=O)c2ccc(CCC[C@@H]3[C@@H](CCc4cc(Cl)cc(Cl)c4)[C@H](O)C[C@H]3Cl)s2)cc1` [Compound 4, 5-(3-{(1R, 2R, 3R, 5R)-5-Chloro-2-[2-(3,5-dichlorophenyl)ethyl]-3-hydroxycyclopentyl}-propyl)thiophene-2-carboxylic acid 4-dimethylaminophenyl ester]: the “stability, 25° C./ 7 days” value turned out to be 98.7; the “stability, 25° C./ 14 days” value turned out to be 100.2; the “stability, 40° C./ 7 days” value amounted to 96.0.

For the compound `CC(CCN1CCOCC1)OC(=O)c1ccc(CCC[C@@H]2[C@@H](CCc3cc(Cl)cc(Cl)c3)[C@H](O)C[C@H]2Cl)s1` (stereo partly drawn) [Compound 5, 5-(3-{(1R, 2R, 3R, 5R)-5-Chloro-2-[2-(3,5-dichlorophenyl)ethyl]-3-hydroxycyclopentyl}propyl)thiophene-2-carboxylic acid, 1-methyl-3-morpholin-4-yl propyl ester], the “stability, 25° C./ 7 days” value was 98.5; the “stability, 25° C./ 14 days” value came out at 95.4; the “stability, 40° C./ 7 days” value worked out at 89.3.

Turning to `O=C(OCCCN1CCOCC1)c1ccc(CCC[C@@H]2[C@@H](CCc3cc(Cl)cc(Cl)c3)[C@H](O)C[C@H]2Cl)s1` [Compound 6, 5-(3-{(1R, 2R, 3R, 5R)-5-Chloro-2-[2-(3,5-dichlorophenyl)ethyl]-3-hydroxycyclopentyl}propyl)thiophene-2-carboxylic acid, 3-morpholin-4-yl propyl ester], the “stability, 25° C./ 7 days” value was determined as 103.0; the “stability, 25° C./ 14 days” value is 102.9; the “stability, 40° C./ 7 days” value is 98.0.

`CC(CN(C)C)OC(=O)c1ccc(CCC[C@@H]2[C@@H](CCc3cc(Cl)cc(Cl)c3)[C@H](O)C[C@H]2Cl)s1` (stereo partly drawn) [Compound 7, 5-(3-{(1R, 2R, 3R, 5R)-5-Chloro-2-[2-(3,5-dichlorophenyl)ethyl]-3-hydroxycyclopentyl}propyl)thiophene-2-carboxylic acid, 2-dimethylamino-1-methyl ethyl ester]: the “stability, 25° C./ 7 days” value worked out at 94.3; the “stability, 25° C./ 14 days” value is 78.5; the “stability, 40° C./ 7 days” value stood at 70.3.

For the compound `CCN(CC)CCOC(=O)c1ccc(CCC[C@@H]2[C@@H](CCc3cc(Cl)cc(Cl)c3)[C@H](O)C[C@H]2Cl)s1` [Compound 8, 5-(3-{(1R, 2R, 3R, 5R)-5-Chloro-2-[2-(3,5-dichlorophenyl)ethyl]-3-hydroxycyclopentyl}-propyl)thiophene-2-carboxylic acid, 2-diethylaminoethyl ester], the “stability, 25° C./ 7 days” value came out at 95.8; the “stability, 25° C./ 14 days” value was 84.6; the “stability, 40° C./ 7 days” value stood at 79.1.

For `CC[N+](C)(CC)CCCOC(=O)c1ccc(CCC[C@@H]2[C@@H](CCc3cc(Cl)cc(Cl)c3)[C@H](O)C[C@H]2Cl)s1` [Compound 9, {3-[5-(3-{(1R, 2R, 3R, 5R)-5-Chloro-2-[2-(3,5-dichlorophenyl)ethyl]-3-hydroxycyclopentyl}-propyl)thiophene-2-carbonyloxy]propyl}diethyl methyl ammonium iodide], the “stability, 25° C./ 7 days” value is given as 100.5; the “stability, 25° C./ 14 days” value was found to be 101.1; the “stability, 40° C./ 7 days” value amounted to 101.8.
